{"source": "paper PMC6104039", "about": "(Nature Communications, 2018)", "key": {"[1]": {"test_system": "cerebellum", "test": "Ceramide, SM and HexCer levels in cerebellum;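 as to Cer 18:1/18:0 content of cerebellum: pmol per mg cerebellum tissue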;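 as to Cer 18:1/24:0 content of cerebellum: pmol per mg cerebellum tissue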;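 as to Cer 18:1/24:1 content of cerebellum: pmol per mg cerebellum tissue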;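 as to Cer 18:2/18:0 content of cerebellum: pmol per mg cerebellum tissue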;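 as to HexCer 18:1 content of cerebellum: pmol per mg cerebellum tissue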;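 as to HexCer 20:1 content of cerebellum: pmol per mg cerebellum tissue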;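 as to HexCer 22:1 content of cerebellum: pmol per mg cerebellum tissue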;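 as to HexCer 24:0 content of cerebellum: pmol per mg cerebellum tissue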;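 as to SM 32:1 content of cerebellum: pmol per mg cerebellum tissue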;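 as to SM 34:2 content of cerebellum: pmol per mg cerebellum tissue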;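 as to SM 36:1 content of cerebellum: pmol per mg cerebellum tissue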;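 as to SM 36:2 content of cerebellum: pmol per mg cerebellum tissue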;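 as to SM 40:1 content of cerebellum: pmol per mg cerebellum tissue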;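 as to SM 40:2 content of cerebellum: pmol per mg cerebellum tissue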;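 as to SM 42:1 content of cerebellum: pmol per mg cerebellum tissue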;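 as to SM 42:2 content of cerebellum: pmol per mg cerebellum tissue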", "format": "in vivo, mice", "excerpt": "Supplementary Figure 7. […] Ceramide, SM, and HexCer […]\nlevels in the cerebellum of vehicle- or P053-treated mice on a chow or HFD. N = 10 mice per group, except for chow vehicle group (n = 9). Mean ± SEM shown. No lipids were […]\ncomparisons. C18:0 HexCer was 45% lower in the P053-treated compared to the vehicle-treated HFD group (unadjusted P value = 0.02; adjusted value P = 0.16). Raw data for these figures is provided in Supplementary Data File 1."}, "[2]": {"test_system": "soleus muscle strips", "test": "Palmitate oxidation in soleus muscle strips pre-treated in vitro", "parameters": "species or system mice", "conditions": "1.5 h in vitro, 1 μM", "experimental": "After a 30 min pre-incubation, muscles were transferred into vials containing 0.5 mCi/mL of [1-^14C]-palmitate in modified Krebs-Henseleit buffer for another 1 h. The reaction was stopped by removal of the muscles and addition of 1 M perchloric acid to the reaction mixture. ^14C-labelled CO2 was quantified as described above. The muscles were blotted dry and snap frozen in liquid nitrogen for subsequent lipid extraction and TLC. Muscles were homogenized using a Polytron (Kinematica, Littau-Lucerne, Switzerland) in 1.5 mL 2:1 chloroform-methanol (v/v). […] The upper aqueous phase was used to quantify ASM, and the lower organic phase was collected and dried under stream of N2, then reconstituted in hexane and spotted on a Silica Gel 60 F254 TLC plate. The TLC plate was developed in hexane/diethyl ether/glacial acetic acid (85:15:1), then air dried. TAG bands were visualised using iodine vapour staining, using an external standard to mark their position, then scraped into vials and quantified by liquid scintillation counting."}, "[3]": {"conditions": "Chow + P053, individual mice, raw data for Supplementary Figure 7"}, "[4]": {"conditions": "HFD + P053, individual mice, raw data for Supplementary Figure 7"}}, "note": "“And” between values parts separate entries of the source, which are not always exact repeats. Identical values can stand only once."}
{"smiles": "C[C@@](N)(CO)CCc1ccc(OCc2ccc(Cl)c(Cl)c2)cc1", "note": "[P053, (S)-2-amino-4-(4-(3,4-dichlorobenzyloxy)phenyl)-2-methylbutan-1-ol]", "values": [{"measurement": "SM 42:1 content of cerebellum", "setting": "[1]; [3]", "result": "47.6271 and 371.292 and 288.623 and 388.513 and 255.841 and 158.489 and 203.273 and 296.49 and 332.331 and 358.331"}, {"measurement": "SM 42:2 content of cerebellum", "setting": "[1]; [3]", "result": "660.19 and 1132.13 and 807.257 and 1283.01 and 802.501 and 434.477 and 634.337 and 659.388 and 719.281 and 714.687"}, {"measurement": "Cer 18:1/16:0 content of cerebellum", "setting": "[1]; [4]", "result": "2.762 and 1.437 and 5.744 and 2.262 and 3.928 and 1.548 and 1.88 and 7.07 and 1.652 and 5.347"}, {"measurement": "Cer 18:1/18:0 content of cerebellum", "setting": "[1]; [4]", "result": "128.546 and 82.2707 and 288.623 and 116.318 and 172.743 and 86.572 and 112.409 and 311.979 and 100.825 and 239.53"}, {"measurement": "Cer 18:1/20:0 content of cerebellum", "setting": "[1]; [4]", "result": "9.681 and 8.421 and 28.463 and 10.3564 and 18.7569 and 5.821 and 8.037 and 34.6254 and 7.548 and 24.475"}, {"measurement": "Cer 18:1/22:0 content of cerebellum", "setting": "[1]; [4]", "result": "15.9533 and 14.996 and 57.2919 and 21.4543 and 38.4094 and 10.5899 and 9.986 and 74.6469 and 9.154 and 46.3627"}, {"measurement": "Cer 18:1/24:0 content of cerebellum", "setting": "[1]; [4]", "result": "36.0277 and 35.1841 and 132.359 and 47.5021 and 88.9579 and 25.0017 and 22.1183 and 201.705 and 15.8687 and 131.28"}, {"measurement": "Cer 18:1/24:1 content of cerebellum", "setting": "[1]; [4]", "result": "97.7004 and 105.297 and 370.02 and 145.116 and 239.743 and 56.9618 and 60.5027 and 471.673 and 50.6294 and 252.902"}, {"measurement": "Cer 18:2/18:0 content of cerebellum", "setting": "[1]; [4]", "result": "5.2575 and 7.26 and 15.0915 and 8.468 and 10.666 and 4.461 and 4.156 and 21.6288 and 3.082 and 13.66"}, {"measurement": "HexCer 16:0 content of cerebellum", "setting": "[1]; [4]", "result": "8.934 and 17.284 and 8.364 and 13.8417 and 14.6417 and 7.1271 and 5.255 and 9.259 and 5.878 and 7.654"}, {"measurement": "HexCer 18:0 content of cerebellum", "setting": "[1]; [4]", "result": "106.702 and 382.139 and 122.466 and 271.752 and 258.221 and 146.382 and 115.813 and 146.018 and 61.4581 and 111.285"}, {"measurement": "HexCer 18:1 content of cerebellum", "setting": "[1]; [4]", "result": "19.0333 and 51.9273 and 16.2259 and 33.0148 and 32.5326 and 25.3913 and 23.9698 and 16.5527 and 15.5439 and 16.7312"}, {"measurement": "HexCer 20:0 content of cerebellum", "setting": "[1]; [4]", "result": "25.9921 and 81.8108 and 22.9498 and 52.8818 and 49.4884 and 37.7023 and 27.8092 and 23.4231 and 13.0014 and 19.1491"}, {"measurement": "HexCer 20:1 content of cerebellum", "setting": "[1]; [4]", "result": "2.413 and 5.45 and 1.502 and 2.714 and 3.093 and 3.36 and 3.204 and 0.8678 and 1.872 and 1.364"}, {"measurement": "HexCer 22:0 content of cerebellum", "setting": "[1]; [4]", "result": "505.659 and 1204.39 and 420.547 and 840.893 and 660.332 and 669.272 and 501.784 and 427.814 and 264.729 and 391.884"}, {"measurement": "HexCer 22:1 content of cerebellum", "setting": "[1]; [4]", "result": "79.5132 and 228.816 and 78.1356 and 158.552 and 150.676 and 92.9587 and 63.0534 and 66.2392 and 42.1951 and 49.044"}, {"measurement": "HexCer 24:0 content of cerebellum", "setting": "[1]; [4]", "result": "2652.92 and 5943.48 and 2280.7 and 4343.65 and 3299.69 and 3289.82 and 2658.72 and 2324.32 and 1408.65 and 2090.2"}, {"measurement": "HexCer 24:1 content of cerebellum", "setting": "[1]; [4]", "result": "5027.14 and 9363.75 and 4512.26 and 7271.57 and 6673.35 and 6052.94 and 5424.24 and 3829.42 and 3500.76 and 3500.55"}, {"measurement": "SM 32:1 content of cerebellum", "setting": "[1]; [4]", "result": "9.976 and 12.4114 and 9.047 and 10.2584 and 10.5601 and 10.6625 and 8.862 and 9.432 and 8.153 and 9.013"}, {"measurement": "SM 34:1 content of cerebellum", "setting": "[1]; [4]", "result": "133.106 and 161.415 and 90.4808 and 115.694 and 117.777 and 135.794 and 123.089 and 72.6388 and 98.8077 and 73.1632"}, {"measurement": "SM 34:2 content of cerebellum", "setting": "[1]; [4]", "result": "5.986 and 10.8404 and 8.948 and 9.3676 and 9.279 and 9.028 and 5.849 and 7.187 and 3.938 and 7.222"}, {"measurement": "SM 36:1 content of cerebellum", "setting": "[1]; [4]", "result": "437.801 and 529.096 and 247.962 and 355.417 and 343.012 and 490.447 and 544.072 and 175.073 and 405.398 and 201.504"}, {"measurement": "SM 36:2 content of cerebellum", "setting": "[1]; [4]", "result": "35.911 and 106.46 and 51.4739 and 67.513 and 67.8953 and 51.6927 and 57.9458 and 40.9288 and 32.7758 and 44.6146"}, {"measurement": "SM 38:1 content of cerebellum", "setting": "[1]; [4]", "result": "151.251 and 204.797 and 99.8821 and 137.133 and 146.282 and 182.882 and 197.347 and 79.7159 and 145.438 and 91.2461"}, {"measurement": "SM 38:2 content of cerebellum", "setting": "[1]; [4]", "result": "6.1474 and 11.1901 and 6.7471 and 8.325 and 8.851 and 10.1186 and 6.052 and 4.124 and 3.938 and 4.099"}, {"measurement": "SM 40:1 content of cerebellum", "setting": "[1]; [4]", "result": "183.889 and 372.913 and 177.074 and 235.958 and 281.655 and 224.359 and 174.632 and 162.333 and 129.812 and 151.975"}, {"measurement": "SM 40:2 content of cerebellum", "setting": "[1]; [4]", "result": "54.9137 and 116.436 and 59.8853 and 73.425 and 86.9536 and 64.465 and 34.4644 and 47.3579 and 33.4194 and 39.329"}, {"measurement": "SM 42:1 content of cerebellum", "setting": "[1]; [4]", "result": "210.79 and 460.407 and 223.848 and 278.666 and 328.3 and 236.404 and 186.283 and 198.576 and 131.683 and 195.129"}, {"measurement": "SM 42:2 content of cerebellum", "setting": "[1]; [4]", "result": "687.51 and 1423.11 and 718.618 and 898.145 and 1023.47 and 688.732 and 582.437 and 593.074 and 472.141 and 503.36"}, {"measurement": "C18:0 HexCer in cerebellum, lower than vehicle", "setting": "[1]; HFD group, adjusted P = 0.16", "result": 45, "unit": "%"}, {"measurement": "C18 ceramide or SM levels in cerebellum", "setting": "[1]; chow or HFD", "result": "did not affect"}, {"measurement": "palmitate oxidation", "setting": "[2]", "result": "not affected"}]}
